Source: PMC12751012, “Nanoscale Direct-to-Biology Optimization and Structural Insights into Selective S. aureus TrmD Inhibitors” (Journal of Medicinal Chemistry, 2025)

Assays:
[1] = Cell Titer Glo cell viability assay; assay type: cell-based, human; conditions: human, HEK293 cells
Method: (§1) Cell viability assays were conducted with HEK293 cells (ATCC) to investigate the compounds’ mammalian cytotoxicity. Cells were cultured according to standard protocols (DMEM, 10% FBS, 1× Penicillin/Streptomycin, 37 °C, 5% CO2). Cell viability was assessed using the Promega CellTiterGlo assay kit. Briefly, 1000 cells were seeded in white half a rea 96-well plates (Greiner) and incubated for 48 h with inhibitors from DMSO stocks (final: 0.1% DMSO) under standard cultivation conditions. Then, the cell titer reagent was added to each well according to the manufacturer’s protocols, and luminescence was measured using a Tecan Spark 10 M plate reader.

HEK293 cells = assay: Cell Titer Glo cell viability assay; assay type: cell-based, human; conditions: 48 h
Method: as §1

E. coli TrmD = target: T1, E. coli TrmD (Escherichia coli, UniProt P0A873); assay: Fluorescence polarization (FP) assay, tracer 3 (Cy5TPD), E. coli TrmD; assay type: binding
T1 construct: made in house; host or cells: E. coli (the strain received with the pCA24N plasmid)
Method: Fluorescence polarization (FP) assays were performed as follows. The assays for H. influenzae TrmD have been described previously. All assays were conducted in technical triplicate using black 96-well half area plates. For the FP assays, a tracer (20 nM Cy5TPD for E. coli and H. influenzae TrmD, 10 nM tracer 4 for S. aureus TrmD) was mixed with the respective enzyme (2 μM E. coli TrmD, 2 μM H. influenzae TrmD, 500 nM S. aureus TrmD) in buffer (E. coli and H. influenzae TrmD: 50 mM HEPES, 500 mM NaCl, 5% Glycerol, pH 7.5, S. aureus TrmD: 40 mM Tris HCl, 100 mM NaCl, 10 mM MgCl2, 5% Glycerol, pH 7.5). The compounds were added in varying concentrations for K D-value determination. For K D-value determination of tracers, the enzyme concentration was varied, and no inhibitory compounds were added (DMSO < 0.5% for TrmDs). The Z-factor for tracer 4 was determined by measuring 48 replicates of the free tracer (positive controls, PC) and 48 replicates of a mixture of enzyme and tracer (negative controls, NC). The Z-factor is defined in terms of the means (μ) and standard deviations (σ) of the positive and negative controls and calculated as Z = 1–(3*(σnc + σpc)/(μnc–μpc)). Fluorescence polarization was measured using a Spark 10 M plate reader (Tecan) equipped with polarization filters and a monochromator setup (λex = 635 nm, λem = 680 nm). Polarization values (mP) were determined from polarization-specific parallel and orthogonal fluorescence intensities. K D-values were calculated in GraphPad Prism 8.0.1 using the four-parameter Hill equation: y(% tracer bound) = bottom + ([ligand]-slope) × (top–bottom)/([ligand]-slope + K Dslope).

T1 sequence (P0A873 whole entry): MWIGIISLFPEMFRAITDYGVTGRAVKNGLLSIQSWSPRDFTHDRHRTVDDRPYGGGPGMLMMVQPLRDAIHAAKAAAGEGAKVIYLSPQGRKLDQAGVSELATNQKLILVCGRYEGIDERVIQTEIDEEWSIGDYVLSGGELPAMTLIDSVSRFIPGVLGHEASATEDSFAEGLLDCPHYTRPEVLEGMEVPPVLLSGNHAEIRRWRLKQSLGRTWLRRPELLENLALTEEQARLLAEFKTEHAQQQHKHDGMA

For `N#Cc1cccc(Cn2cc(-c3c[nH]c4nc[nH]c(=O)c34)nn2)c1` [Compound 8b, 3-((4-(4-Oxo-4,7-dihydro-3H-pyrrolo[2,3-d]pyrimidin-5-yl)-1H-1,2,3-triazol-1-yl)methyl)benzonitrile], the CC50 at 48 h [1] was over 100 µM, the “mammalian cytotoxicity HEK293” value (HEK293 cells; at 100 μM) was “Slight cytotoxic effects” and the Kd (E. coli TrmD) was over 30 µM.

In the case of `O=c1[nH]cnc2[nH]cc(-c3cn(CC4CCC5C(CC4)C5(F)F)nn3)c12` (stereo not shown) [Compound 8c, 5-(1-((8,8-Difluorobicyclo[5.1.0]octan-4-yl)methyl)-1H-1,2,3-triazol-4-yl)-3,7-dihydro-4H-pyrrolo[2,3-d]pyrimidin-4-one], the CC50 at 48 h [1] is reported as over 100 µM, the “mammalian cytotoxicity HEK293” value (HEK293 cells; at 100 μM) is reported as “Slight cytotoxic effects” and the Kd (E. coli TrmD) is reported as over 30 µM.

Work on `O=c1[nH]cnc2[nH]cc(-c3cn(Cc4ccc5ncccc5c4)nn3)c12` [Compound 8d, 5-(1-(Quinolin-6-ylmethyl)-1H-1,2,3-triazol-4-yl)-3,7-dihydro-4H-pyrrolo[2,3-d]pyrimidin-4-one] yielded a CC50 at 48 h [1] of over 100 µM and a Kd (E. coli TrmD) of over 30 µM.

In the case of `N[C@@H]1CCC[C@@H]1Cn1cc(-c2c[nH]c3nc[nH]c(=O)c23)nn1` [Compound 8e, 5-(1-(((1R,2R)-2-Aminocyclopentyl)methyl)-1H-1,2,3-triazol-4-yl)-3,7-dihydro-4H-pyrrolo[2,3-d]pyrimidin-4-one], the CC50 at 48 h [1] is reported as over 100 µM, the “mammalian cytotoxicity HEK293” value (HEK293 cells; at >10 μM) is reported as “Slight cytotoxic effects” and the Kd (E. coli TrmD) is reported as over 30 µM.

In the case of `NC(N)=NCCn1cc(-c2c[nH]c3nc[nH]c(=O)c23)nn1` [Compound 8h], the “cell viability / mammalian cytotoxicity HEK293” value (HEK293 cells; up to 100 μM) is reported as “no mammalian cytotoxicity” and the Kd (E. coli TrmD) is reported as over 30 µM.
